According to patent US20040175762A1, “Screening system based on expression of abcg2 half transporter protein” (priority 2001, published 2004):
Where two headings read alike, the source gives them in different places.

Experiments:
ABCG2 [1] = molecular target: T1, ABCG2 (Homo sapiens, UniProt Q9UNQ0, R482G); assay: in vitro
T1 sequence (Q9UNQ0 1-655 R482G): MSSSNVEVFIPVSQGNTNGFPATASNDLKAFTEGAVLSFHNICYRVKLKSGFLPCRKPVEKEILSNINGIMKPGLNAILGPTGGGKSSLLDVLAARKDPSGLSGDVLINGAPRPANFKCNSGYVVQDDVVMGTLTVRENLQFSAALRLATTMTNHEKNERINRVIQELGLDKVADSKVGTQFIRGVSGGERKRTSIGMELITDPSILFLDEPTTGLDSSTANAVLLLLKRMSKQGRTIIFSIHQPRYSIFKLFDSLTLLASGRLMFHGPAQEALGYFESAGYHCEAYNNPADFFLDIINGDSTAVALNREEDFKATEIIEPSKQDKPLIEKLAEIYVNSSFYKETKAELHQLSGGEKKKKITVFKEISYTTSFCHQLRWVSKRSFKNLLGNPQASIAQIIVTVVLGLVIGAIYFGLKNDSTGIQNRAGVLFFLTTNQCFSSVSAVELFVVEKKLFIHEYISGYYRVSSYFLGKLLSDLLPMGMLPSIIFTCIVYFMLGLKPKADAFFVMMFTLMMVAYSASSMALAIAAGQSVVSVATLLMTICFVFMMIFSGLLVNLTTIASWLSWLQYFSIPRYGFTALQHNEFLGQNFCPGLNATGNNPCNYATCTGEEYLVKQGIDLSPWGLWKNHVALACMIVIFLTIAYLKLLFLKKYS
Description: FIG. 2: Comparison of the effects of various compounds on the vanadate sensitive ATPase activity in isolated Sf9 membranes of ABCG2 (FIG. 2a) or MDR1 (FIG. 2b) expressing Sf9 cells. […] Data points indicate the mean±S.D. values of at least four measurements, performed in two or three different membrane preparations.
Individual clones expressing high levels of the human ABCG2 were obtained by end-point dilution and subsequent amplification. The clone producing the highest yield of the ABCG2 protein was selected by immunoblotting (see below).
The reaction mixture contained 40 mM MOPS-Tris (pH 7.0), 50 MM KCl, 2 mM dithiothreitol, 500 μM EGTA-Tris, 5 mM Na-azide, 1 mM oubain and 5-20 μg membrane protein. […] The vanadate sensitive faction was determined in the presence of 1 mM Na-orthovanadate.

ABCG2 [2] = molecular target: T1, ABCG2; assay: Hoechst dye uptake in intact Sf9 cells expressing ABCG2 (fluorescence spectrophotometry); format: cell-based; set-up: removing the full length human ABCG2 cDNA (G482 variant); expressed in transfected cells; host or cells: Sf9 insect cells infected with recombinant baculovirus
Description: FIG. 6. Hoechst dye uptake followed by fluorescence spectrophotometry in Sf9 cells expressing ABCG2482G (Panel A) or ABCG2 K86M mutant (Panel B). Abscissa: time in seconds. Ordinate: relative fluorescence in arbitrary units.
Hoechst33342 uptake—Hoechst dye uptake (5 μM) was measured in a fluorescence spectrophotometer at 350 nm (excitation)/460 nm (emission), by using 3×10^5 cells in a HPMI solution. This dye becomes fluorescent only in a complex with DNA (Haugland, MP catalogue). The initial increase of fluorescence is due to a rapid dye uptake and nuclear staining in dead cells, while further cellular dye uptake is reflected by an increase in fluorescence. At the end of each experiment, for standardization, a full cellular staining is obtained by the addition of 8 μM digitonin, disrupting the integrity of the cell membrane.

ABCG2 [3] = molecular target: T1, ABCG2
Description: FIG. 5. Mitoxantrone uptake in intact Sf9 cells expressing ABCG2 variants.
Flow-cytometry determination of MX fluorescence after 30 min incubation at 37° C.
Cells were washed once and suspended in HPMI. Aliquots of the suspension containing 3×10^5 cells were incubated with or without the addition of 5 μM MX, and also with 5 μM MX+10 μM FTC (a specific inhibitor of ABCG2). After an incubation for 30 minutes at 37° C. the cells were washed with ice-cold HPMI medium and than suspended in ice-cold HPMI containing 1.51 μl 10 mg/ml propidium-iodide and stored on ice until the flow cytometry measurements. […] Events were counted up to 15000 and dead cells were excluded based on propidium iodide staining.

human MDR1 protein = human MDR1 protein (Homo sapiens, UniProt P08183)
Description: Data points indicate the mean±S.D. values of at least four measurements, performed in two or three different membrane preparations. Control values show the activity measured in the absence of added compounds.

[4] = relative to the ATPase activity measured in the absence of compound

human MDR1 protein, sequence (P08183 whole entry): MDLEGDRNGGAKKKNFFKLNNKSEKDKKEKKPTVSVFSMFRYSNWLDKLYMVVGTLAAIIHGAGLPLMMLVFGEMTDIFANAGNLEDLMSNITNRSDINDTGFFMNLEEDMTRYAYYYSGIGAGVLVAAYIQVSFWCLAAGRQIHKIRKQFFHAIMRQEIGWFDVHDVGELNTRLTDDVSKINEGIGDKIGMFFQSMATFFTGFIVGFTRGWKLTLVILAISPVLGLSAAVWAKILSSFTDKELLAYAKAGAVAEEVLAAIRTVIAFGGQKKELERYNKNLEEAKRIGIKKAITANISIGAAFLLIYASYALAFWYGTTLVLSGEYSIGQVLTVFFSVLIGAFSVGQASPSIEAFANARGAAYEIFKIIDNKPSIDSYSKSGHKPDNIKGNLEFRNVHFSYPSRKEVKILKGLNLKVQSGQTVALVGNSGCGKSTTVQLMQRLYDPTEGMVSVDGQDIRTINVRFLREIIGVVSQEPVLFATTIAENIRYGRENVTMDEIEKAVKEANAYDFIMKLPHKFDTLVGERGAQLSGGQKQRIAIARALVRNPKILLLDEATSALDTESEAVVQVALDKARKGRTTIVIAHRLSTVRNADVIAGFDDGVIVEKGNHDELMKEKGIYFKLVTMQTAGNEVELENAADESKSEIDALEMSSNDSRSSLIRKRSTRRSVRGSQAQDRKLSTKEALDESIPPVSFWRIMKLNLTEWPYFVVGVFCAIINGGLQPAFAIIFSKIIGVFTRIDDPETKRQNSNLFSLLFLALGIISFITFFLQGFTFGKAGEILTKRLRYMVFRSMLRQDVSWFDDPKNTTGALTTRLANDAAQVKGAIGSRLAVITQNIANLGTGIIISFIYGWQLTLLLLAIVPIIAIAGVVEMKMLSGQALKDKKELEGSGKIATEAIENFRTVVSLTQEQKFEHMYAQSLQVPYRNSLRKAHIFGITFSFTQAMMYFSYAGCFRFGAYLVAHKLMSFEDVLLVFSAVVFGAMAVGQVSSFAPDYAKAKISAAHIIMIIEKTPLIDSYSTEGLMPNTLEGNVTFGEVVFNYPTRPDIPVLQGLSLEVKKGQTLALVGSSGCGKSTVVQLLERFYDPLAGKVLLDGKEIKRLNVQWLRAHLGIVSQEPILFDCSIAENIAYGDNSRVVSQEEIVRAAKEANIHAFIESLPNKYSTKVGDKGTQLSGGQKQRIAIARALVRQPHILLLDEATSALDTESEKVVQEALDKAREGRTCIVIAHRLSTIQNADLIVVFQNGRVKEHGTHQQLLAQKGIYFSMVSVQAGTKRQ

For `COc1cccc2c1C(=O)c1c(O)c3c(c(O)c1C2=O)C[C@@](O)(C(C)=O)C[C@@H]3O[C@H]1C[C@H](N)[C@H](O)[C@H](C)O1` [Daunorubicin], the Emax (ABCG2 [1]; human, pH 7) was 50% and the Kact (ABCG2 [1]; human, pH 7) was 2,5 mM.
With `CCOc1ccc(-c2nc3ccc(-c4nc5ccc(N6CCN(C)CC6)cc5[nH]4)cc3[nH]2)cc1` [Hoechst dye, Hoechst33342] the “Hoechst dye extrusion by ABCG2-expressing Sf9 cells” value (ABCG2 [2]) was “actively extrude”.
Rhodamine 123 was tested, and the Kact (ABCG2 [1]) was 4,5 mM and the “Maximum stimulation (%)” value (ABCG2 [1]; [4]) was 20%.
`CCN1C(=O)C=CC1=O` [NEM, N-ethylmaleimide] gave a Ki (ABCG2 [1]) of 10 µM.
`[Na+].[Na+].[Na+].[O]=[V]([O-])([O-])[O-]` [Na-orthovanadate] gave a Ki (ABCG2 [1]) of ~20 µM.
`COc1cccc2c1C(=O)c1c(O)c3c(c(O)c1C2=O)C[C@@](O)(C(=O)CO)C[C@@H]3O[C@H]1C[C@H](N)[C@H](O)[C@H](C)O1` [Doxorubicin] gave an Emax (ABCG2 [1]; human, pH 7) of 30% and a Kact (ABCG2 [1]; human, pH 7) of 5 mM.
`O=C1c2c(O)ccc(O)c2C(=O)c2c(NCCNCCO)ccc(NCCNCCO)c21` [Mitoxantrone] was tested, and the “Effect on ABCG2-ATPase activity” value (ABCG2 [1]; human, pH 7) was “stimulated the ABCG2-ATPase activity in a concentration dependent manner”, the Emax (ABCG2 [1]; human, pH 7) was 40% and the Kact (ABCG2 [1]; human, pH 7) was 7 mM. For the same molecule, the “Mitoxantrone extrusion by ABCG2-expressing Sf9 cells” value (ABCG2 [3]; intact cells, flow cytometry) was “actively extrude” and the “Effect on MDR1-ATPase activity” value (human MDR1 protein) was “no significant effect”.
For `COc1ccc2c3c([nH]c2c1)[C@H](C=C(C)C)N1C(=O)[C@@H]2CCCN2C(=O)[C@@H]1C3` [Fumitremorgin C], the Ki (ABCG2 [1]) was 1.3 µM, the “Maximum inhibition (%)” value (ABCG2 [1]; [4]) was 74% and the “Effect on ABCG2-ATPase activity” value (ABCG2 [1]; result in words) was “strongly inhibited”. The “Effect on active extrusion of fluorescent compounds by ABCG2 482 variants” value (ABCG2 [3]; 482R, 482G, 482T variants, intact Sf9 cells) was “inhibited”, the “Effect on verapamil stimulated MDR1-ATPase activity” value (human MDR1 protein; 33 μM verapamil) was “no significant effect” and the “Effect on MDR1-ATPase activity” value (human MDR1 protein; basal, result in words) was “no significant effect”.
With `CC(=O)OCOC(=O)CN(CC(=O)OCOC(C)=O)Cc1cc2c(cc1OC(C)=O)Oc1cc(OC(C)=O)c(CN(CC(=O)OCOC(C)=O)CC(=O)OCOC(C)=O)cc1C21OC(=O)c2ccccc21` [Calcein-AM, calcein acetoxy-methylesther] the “Effect on ABCG2-ATPase activity” value (ABCG2 [1]; result in words) was “no effect”, the “Kact, MDR1-ATPase” value (human MDR1 protein) was “about 1 μM” and the “Stimulation of MDR1-ATPase” value (human MDR1 protein) was 4.5 fold.
In the case of `Nc1ncnc2c1ncn2[C@@H]1O[C@H](COP(=O)(O)OP(=O)([O-])OP(=O)([O-])O)[C@@H](O)[C@H]1O.[Mg+2]` [MgATP], the Km (ABCG2 [1]) is reported as ~300 µM, the “MgATP concentration producing half-maximum membrane ATPase activity” value (ABCG2 [1]) is reported as 0.3 mM and the Km (ABCG2 [1]; read-out: KM ATP, without an added substrate) is reported as 600 µM.
